Reference: patent US20010047027A1, “Prostaglandin D2 receptor antagonists” (priority 2000, published 2001)

Target: T1, prostanoid DP receptor (prostaglandin D receptor) (Homo sapiens, UniProt Q13258)
T1 construct: expressed in transfected cells; host or cells: HEK293(EBNA) cells; membranes, 160,000 x g fraction
T1 sequence (Q13258 1-359): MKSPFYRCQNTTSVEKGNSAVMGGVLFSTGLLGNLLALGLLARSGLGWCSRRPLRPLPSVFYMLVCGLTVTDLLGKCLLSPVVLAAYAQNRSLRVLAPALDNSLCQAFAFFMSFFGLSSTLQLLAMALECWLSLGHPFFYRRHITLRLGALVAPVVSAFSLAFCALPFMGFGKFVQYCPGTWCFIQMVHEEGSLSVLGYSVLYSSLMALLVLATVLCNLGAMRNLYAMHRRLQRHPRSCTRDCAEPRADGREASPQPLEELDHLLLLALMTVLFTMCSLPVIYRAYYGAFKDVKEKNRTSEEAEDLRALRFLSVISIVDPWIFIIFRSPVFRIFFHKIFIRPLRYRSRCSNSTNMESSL
Assay: Radioligand binding assay using membranes from cells that express recombinant prostanoid DP receptor
Settings: for Ki: membranes of HEK293(EBNA) cells expressing DP, 0.7 nM [3H]PGD2, 60 min at room temperature, n = 5, read-out: Affinity (Ki) for the prostaglandin D receptor; for affinity for the prostaglandin D2 receptor, in words: comparison of the 1R isomers with the other two diastereomers
Experimental: Radioligand binding assays using membranes from cells that express recombinant prostanoid DP receptor (DP).
Radioligand binding assays are conducted essentially as previously described (Abramovitz et al., Biochem. Biophys. Acta 1483-2, 285-293, 2000). HEK293(EBNA) cells expressing DP are grown in supplemented DMEM complete medium at 37° C. in a humidified atmosphere of 6% CO2 in air, and then harvested. Cells are disrupted by nitrogen cavitation at 800 psi for 30 min. on ice in the presence of protease inhibitors (2 mM phenylmethylsulfonylfluoride, 10 μM E-64, 100 μM leupeptin and 0.05 mg/mL pepstatin). Membranes are prepared by differential centrifugation (1000×g for 10 min, then 160,000×g for 30 min, all at 4° C.). The 160,000×g pellets are resuspended in 10 mM HEPES/KOH (pH 7.4) containing 1 mM EDTA at approximately 5-10 mg/mL protein by Dounce homogenization (Dounce A; 10 strokes), frozen in liquid nitrogen and stored at −80° C. DP receptor binding assays are performed in a final incubation volume of 0.2 mL in 10 mM HEPES/KOH (pH 7.4), containing 1 mM EDTA, 10 mM MnCl2, 0.7 nM [^3H]PGD2 (115-200 Ci/mmol). The reaction was initiated by addition of 30-60 μg membrane protein from the 160,000×g fraction. Test compounds are added in dimethylsulfoxide (Me2SO) at 1% (v/v) in all incubations. Non-specific binding was determined in the presence of 1-10 μM of non-radioactive PGD2. Incubations are conducted for 60 min. at room temperature. Incubations are terminated by rapid filtration at 4° C. Radioactivity bound to the individual filters is determined by scintillation counting. Maximum specific binding is defined as the total binding minus the non-specific binding. Specific binding is determined at each concentration of test compound and is expressed as a percentage of the maximum specific binding. Sigmoidal equilibrium competition curves were constructed by expressing percentage maximum specific binding as a function of ligand concentration and analyzed by a validated custom designed software employing a simplex driven non-linear least-squares curve fitting routine based on a four parameter equation to determine the inflection point concentration (InPt). The corresponding Kivalues were derived from the equation Ki=InPt/1+([radioligand]/KD).

Ki [nM] | affinity for the prostaglandin D2 receptor, in words | SMILES
72 ± 4 | – | C[S+]([O-])c1cccc2c3c(n(Cc4ccc(Cl)cc4)c12)C(CC(=O)O)CCC3 (single isomer, unassigned) [Enantiomer of Ib, reference compound]
1.7 ± 0.3 | much higher affinity | C[S@+]([O-])c1cccc2c3c(n(Cc4ccc(Cl)cc4)c12)[C@@H](CC(=O)O)CCC3 [Compound Ia, 2-[(1R)-9-(4-chlorobenzyl)-8-((S)-methylsulfinyl)-2,3,4,9-tetrahydro-1H-carbazol-1-yl]acetic acid]
2.1 ± 0.1 | much higher affinity | C[S@@+]([O-])c1cccc2c3c(n(Cc4ccc(Cl)cc4)c12)[C@@H](CC(=O)O)CCC3 [Compound Ib, 2-[(1R)-9-(4-chlorobenzyl)-8-((R)-methylsulfinyl)-2,3,4,9-tetrahydro-1H-carbazol-1-yl]acetic acid]
119 ± 39 | – | C[S+]([O-])c1cccc2c3c(n(Cc4ccc(Cl)cc4)c12)C(CC(=O)O)CCC3 (single isomer, unassigned) [Enantiomer of Ia, reference compound]
